Results taken from patent US9309242B2, “Substituted pyrido[2,3-b]pyrazines as FGFR kinase inhibitors” (priority 2011, dated 2016).
Like-named read-outs stand apart in the source and are kept apart here.

Legend:
[1] = biological target: FGFR1 (h) (Homo sapiens, UniProt P11362); assay: FGFR1 (enzymatic assay), TR-FRET; assay type: biochemical; conditions: read-out: FGFR 1 pIC50 (converted)
[2] = biological target: FGFR2 (h) (Homo sapiens, UniProt P21802); assay: FGFR2 (enzymatic assay), TR-FRET; assay type: biochemical; conditions: enzymatic assay, read-out: FGFR 2 pIC50 (converted)
How it was run: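 Human FGFR2 (150 ng/ml) was incubated with 500 nM Btn-Flt3 substrate and 0.4 μM ATP in 50 mM HEPES pH 7.5, 6 mM MnCl2, 1 mM DTT, 0.1 mM Na3VO4, 0.01% Triton-X-100. Compound was present at 1% DMSO final.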

[3] = biological target: FGFR3 (h) (Homo sapiens, UniProt P22607); assay: FGFR3 (enzymatic assay), TR-FRET; assay type: biochemical; conditions: read-out: FGFR 3 pIC50 (converted)
Description: Time-Resolved Fluorescence Resonance Energy Transfer (TR-FRET) signal (ex340 nm.

[4] = biological target: FGFR4 (h) (Homo sapiens, UniProt P22455); assay: FGFR4 (enzymatic assay), TR-FRET; assay type: biochemical; conditions: FGFR 4 pIC50, enzymatic assay
[5] = biological target: KDR (h) (Homo sapiens, UniProt P35968); assay: KDR (VEGFR2) (enzymatic assay), TR-FRET; assay type: biochemical; conditions: read-out: VEGFR 2 (KDR) pIC50 (converted)
How it was run: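 Read-out is TR-FRET (ex 340 nm, em 620 and 655 nm) in RFU, after an EDTA stop carrying Eu-labelled anti-phosphotyrosine and SA-XL-665 (60 min, RT). The preceding kinase reaction ran 120 min at RT with 150 ng/ml enzyme, 500 nM Btn-Flt3 and 3 μM ATP.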

[6] = biological target: T1, Ba/F3-FGFR1-transfected cells (Homo sapiens, UniProt P11362); assay: Ba/F3-FGFR1 (minus IL3) cellular proliferation assay, Alamar Blue; assay type: cell-based
T1 construct: BAF3-FGFR1 (MIN IL3) pIC50; other: minus IL3
How it was run: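 Ba/F3-FGFR1 cells (20000 per well) were exposed to compound for 24 h at 37 °C in RPMI-1640 with 10% FBS. Alamar Blue (resazurin) was then added for 4 h, and fluorescence was read at ex 540/em 590 nm.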

[7] = tested on: Ba/F3-FGFR1-transfected cells; assay: Ba/F3-FGFR1 (plus IL3) cellular proliferation assay, counterscreen with 10 ng/ml murine IL3; assay type: cell-based; conditions: read-out: BAF3-FGFR1 (PLUS IL3) pIC50 (converted)
How it was run: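 Ba/F3-FGFR1 cells (20000/well) in RPMI-1640 with 10% FBS exposed to compound for 24 h at 37° C., 5% CO2, then Alamar Blue (resazurin) added for 4 h; fluorescence read at ex 540/em 590 nm. Counterscreen run identically with 10 ng/ml murine IL3.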

[8] = biological target: T2, Ba/F3-FGFR3-transfected cells (Homo sapiens, UniProt P22607); assay: Ba/F3-FGFR3 (minus IL3) cellular proliferation assay, Alamar Blue; assay type: cell-based
T2 construct: BAF3-FGFR3 (MIN IL3) pIC50; other: minus IL3
How it was run: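 Ba/F3 cells transfected with FGFR3, 20000/well in phenol red-free RPMI-1640 with 10% FBS, exposed to compound for 24 h at 37 °C, 5% CO2. Alamar Blue (resazurin) added for 4 h more; fluorescence read at ex 540/em 590 nm. Counterscreen run the same way with 10 ng/ml murine IL3.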

[9] = tested on: Ba/F3-KDR-transfected cells; assay: Ba/F3-KDR (plus IL3) cellular proliferation assay, counterscreen with 10 ng/ml murine IL3; assay type: cell-based; conditions: read-out: BAF3-KDR (PLUS IL3) pIC50 (converted)
How it was run: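 20000 cells/well, RPMI-1640 + 10% FBS + 2 mM L-Gln; compound 24 h, 37° C/5% CO2; Alamar Blue 4 h; RFU ex540/em590.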

[10] = biological target: Ba/F3-FGFR4-transfected cells (Homo sapiens, UniProt P22455); assay: Ba/F3-FGFR4 cellular proliferation assay, Alamar Blue; assay type: cell-based
How it was run: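 20000 cells/well, RPMI-1640 (phenol red free) + 10% FBS + 2 mM L-Gln; cpd from DMSO; 24 h, 37° C, 5% CO2; Alamar Blue 4 h; RFU ex 540/em 590 nm.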

[11] = average values if tested multiple times
[12] = plus IL3 (10 ng/ml murine IL3, counterscreen)

FGFR1 (h), sequence (P11362 22-822): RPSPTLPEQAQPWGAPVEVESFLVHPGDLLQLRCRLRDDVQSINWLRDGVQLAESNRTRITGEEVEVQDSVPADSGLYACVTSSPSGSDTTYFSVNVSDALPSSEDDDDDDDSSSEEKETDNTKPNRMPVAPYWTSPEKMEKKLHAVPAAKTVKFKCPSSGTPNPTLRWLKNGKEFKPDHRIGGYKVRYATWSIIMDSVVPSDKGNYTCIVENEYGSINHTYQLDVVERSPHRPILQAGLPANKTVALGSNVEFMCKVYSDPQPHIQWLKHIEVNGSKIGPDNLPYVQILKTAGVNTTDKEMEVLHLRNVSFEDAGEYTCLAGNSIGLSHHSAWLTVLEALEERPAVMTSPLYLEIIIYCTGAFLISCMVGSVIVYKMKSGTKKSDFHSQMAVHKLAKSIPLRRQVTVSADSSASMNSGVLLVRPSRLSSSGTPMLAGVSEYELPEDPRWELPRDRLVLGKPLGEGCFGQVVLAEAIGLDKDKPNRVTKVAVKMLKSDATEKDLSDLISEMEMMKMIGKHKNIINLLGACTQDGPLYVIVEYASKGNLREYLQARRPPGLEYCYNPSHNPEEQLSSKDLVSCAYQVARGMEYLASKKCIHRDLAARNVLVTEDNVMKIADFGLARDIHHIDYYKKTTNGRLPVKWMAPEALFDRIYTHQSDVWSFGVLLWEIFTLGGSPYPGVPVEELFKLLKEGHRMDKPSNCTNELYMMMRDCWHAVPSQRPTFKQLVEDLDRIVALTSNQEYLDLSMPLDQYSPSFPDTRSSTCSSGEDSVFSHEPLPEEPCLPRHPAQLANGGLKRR
FGFR2 (h), sequence (P21802 22-821): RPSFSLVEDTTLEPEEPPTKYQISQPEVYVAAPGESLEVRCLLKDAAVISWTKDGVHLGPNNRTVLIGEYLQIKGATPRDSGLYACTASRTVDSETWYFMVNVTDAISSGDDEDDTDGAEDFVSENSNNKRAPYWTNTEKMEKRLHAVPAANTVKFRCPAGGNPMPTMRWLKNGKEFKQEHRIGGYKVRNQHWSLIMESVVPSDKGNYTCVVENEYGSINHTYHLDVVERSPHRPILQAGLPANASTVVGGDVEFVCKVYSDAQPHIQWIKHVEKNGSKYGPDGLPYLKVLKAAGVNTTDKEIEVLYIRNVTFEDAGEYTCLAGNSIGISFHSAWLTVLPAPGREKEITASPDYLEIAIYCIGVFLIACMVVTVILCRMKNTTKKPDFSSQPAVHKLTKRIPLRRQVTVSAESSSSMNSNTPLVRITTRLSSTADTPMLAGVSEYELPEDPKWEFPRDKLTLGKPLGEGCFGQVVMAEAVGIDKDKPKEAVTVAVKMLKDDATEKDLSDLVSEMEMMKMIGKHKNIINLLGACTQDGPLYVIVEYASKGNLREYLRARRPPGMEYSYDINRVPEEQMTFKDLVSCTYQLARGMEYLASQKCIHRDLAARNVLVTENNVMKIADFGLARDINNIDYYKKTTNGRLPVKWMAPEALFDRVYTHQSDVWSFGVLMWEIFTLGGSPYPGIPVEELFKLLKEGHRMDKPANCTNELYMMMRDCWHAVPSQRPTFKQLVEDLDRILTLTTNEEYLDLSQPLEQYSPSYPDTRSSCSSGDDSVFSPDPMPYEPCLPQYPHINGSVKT
FGFR3 (h), sequence (P22607 23-806): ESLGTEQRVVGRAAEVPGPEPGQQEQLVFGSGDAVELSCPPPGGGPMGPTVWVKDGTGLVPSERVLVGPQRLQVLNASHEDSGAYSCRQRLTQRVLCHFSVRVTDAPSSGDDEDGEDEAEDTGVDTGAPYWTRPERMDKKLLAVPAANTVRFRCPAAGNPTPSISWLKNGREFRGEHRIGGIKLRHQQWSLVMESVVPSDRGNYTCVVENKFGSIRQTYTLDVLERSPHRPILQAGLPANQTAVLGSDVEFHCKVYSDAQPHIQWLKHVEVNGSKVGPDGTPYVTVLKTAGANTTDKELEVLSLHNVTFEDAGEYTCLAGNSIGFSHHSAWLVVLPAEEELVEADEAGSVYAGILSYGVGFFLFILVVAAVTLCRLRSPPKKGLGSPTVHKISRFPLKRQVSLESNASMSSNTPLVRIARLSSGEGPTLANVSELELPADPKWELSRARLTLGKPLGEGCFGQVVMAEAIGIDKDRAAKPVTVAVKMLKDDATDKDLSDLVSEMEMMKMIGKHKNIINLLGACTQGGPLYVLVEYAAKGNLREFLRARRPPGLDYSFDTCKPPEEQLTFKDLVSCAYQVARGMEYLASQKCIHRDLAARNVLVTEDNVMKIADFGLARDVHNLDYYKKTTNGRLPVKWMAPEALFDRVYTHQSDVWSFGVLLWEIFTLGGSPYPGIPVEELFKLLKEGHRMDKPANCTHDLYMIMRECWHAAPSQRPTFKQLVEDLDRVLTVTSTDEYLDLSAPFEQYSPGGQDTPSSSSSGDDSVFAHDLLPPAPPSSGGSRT
FGFR4 (h), sequence (P22455 22-802): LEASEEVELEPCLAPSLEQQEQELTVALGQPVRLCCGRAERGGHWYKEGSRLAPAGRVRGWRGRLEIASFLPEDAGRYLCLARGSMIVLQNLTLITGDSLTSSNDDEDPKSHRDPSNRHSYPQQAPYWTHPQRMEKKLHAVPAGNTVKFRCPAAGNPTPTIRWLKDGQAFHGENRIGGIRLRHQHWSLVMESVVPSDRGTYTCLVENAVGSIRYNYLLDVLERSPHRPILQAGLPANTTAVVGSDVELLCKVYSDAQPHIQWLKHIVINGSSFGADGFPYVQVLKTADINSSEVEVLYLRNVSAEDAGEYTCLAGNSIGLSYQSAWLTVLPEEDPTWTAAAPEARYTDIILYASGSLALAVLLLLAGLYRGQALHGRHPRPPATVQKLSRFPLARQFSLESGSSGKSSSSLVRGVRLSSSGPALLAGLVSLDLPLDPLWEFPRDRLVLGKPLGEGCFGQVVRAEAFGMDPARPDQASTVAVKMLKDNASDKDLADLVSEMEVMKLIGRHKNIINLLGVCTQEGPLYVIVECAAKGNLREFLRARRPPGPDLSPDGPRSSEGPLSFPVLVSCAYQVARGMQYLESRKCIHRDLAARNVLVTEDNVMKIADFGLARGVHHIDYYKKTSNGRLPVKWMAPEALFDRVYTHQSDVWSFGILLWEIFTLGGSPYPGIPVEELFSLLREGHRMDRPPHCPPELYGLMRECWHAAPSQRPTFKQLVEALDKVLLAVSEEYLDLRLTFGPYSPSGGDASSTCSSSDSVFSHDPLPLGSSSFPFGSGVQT
Ba/F3-FGFR4-transfected cells, sequence (P22455 whole entry, change not shown): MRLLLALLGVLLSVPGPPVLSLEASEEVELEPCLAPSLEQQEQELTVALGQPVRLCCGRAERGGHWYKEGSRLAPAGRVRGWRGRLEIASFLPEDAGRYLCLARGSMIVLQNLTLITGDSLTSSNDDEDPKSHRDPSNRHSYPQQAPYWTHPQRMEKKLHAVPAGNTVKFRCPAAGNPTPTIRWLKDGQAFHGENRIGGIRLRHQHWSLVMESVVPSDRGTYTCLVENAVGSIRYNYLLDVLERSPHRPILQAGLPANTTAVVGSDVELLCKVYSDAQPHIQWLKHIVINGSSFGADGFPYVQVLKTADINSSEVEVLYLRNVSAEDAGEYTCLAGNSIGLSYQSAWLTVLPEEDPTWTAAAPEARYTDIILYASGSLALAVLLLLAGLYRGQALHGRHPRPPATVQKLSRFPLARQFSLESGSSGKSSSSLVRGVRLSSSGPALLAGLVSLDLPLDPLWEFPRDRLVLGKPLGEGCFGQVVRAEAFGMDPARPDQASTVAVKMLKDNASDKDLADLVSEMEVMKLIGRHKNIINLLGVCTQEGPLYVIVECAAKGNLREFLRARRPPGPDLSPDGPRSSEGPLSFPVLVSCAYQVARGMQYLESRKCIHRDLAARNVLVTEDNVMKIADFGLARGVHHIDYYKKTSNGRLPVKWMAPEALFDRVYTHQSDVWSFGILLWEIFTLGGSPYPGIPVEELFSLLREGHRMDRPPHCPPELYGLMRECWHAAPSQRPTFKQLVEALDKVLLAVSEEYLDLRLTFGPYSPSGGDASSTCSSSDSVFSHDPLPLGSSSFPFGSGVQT
T2 sequence (P22607 whole entry, change not shown): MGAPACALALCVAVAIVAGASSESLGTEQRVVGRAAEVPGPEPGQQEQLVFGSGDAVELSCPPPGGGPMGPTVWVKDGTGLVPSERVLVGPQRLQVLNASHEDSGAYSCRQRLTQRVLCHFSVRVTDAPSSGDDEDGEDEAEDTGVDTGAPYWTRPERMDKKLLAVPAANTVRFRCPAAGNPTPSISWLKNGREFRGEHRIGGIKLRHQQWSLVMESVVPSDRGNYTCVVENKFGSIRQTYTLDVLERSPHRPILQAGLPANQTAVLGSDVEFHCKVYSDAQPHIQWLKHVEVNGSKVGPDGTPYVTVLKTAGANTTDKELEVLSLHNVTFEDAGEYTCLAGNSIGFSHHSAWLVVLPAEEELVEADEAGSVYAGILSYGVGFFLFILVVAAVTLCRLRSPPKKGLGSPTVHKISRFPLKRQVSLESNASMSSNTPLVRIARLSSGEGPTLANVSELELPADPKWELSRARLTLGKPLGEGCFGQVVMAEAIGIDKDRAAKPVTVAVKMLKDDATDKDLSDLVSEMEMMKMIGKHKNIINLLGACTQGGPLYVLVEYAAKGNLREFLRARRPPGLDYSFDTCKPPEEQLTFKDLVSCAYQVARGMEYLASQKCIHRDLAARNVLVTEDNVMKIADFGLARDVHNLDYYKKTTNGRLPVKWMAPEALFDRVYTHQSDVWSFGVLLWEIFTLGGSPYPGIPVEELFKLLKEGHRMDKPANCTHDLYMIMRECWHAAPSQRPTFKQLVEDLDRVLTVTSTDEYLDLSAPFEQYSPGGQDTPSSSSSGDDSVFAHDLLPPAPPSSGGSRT

Structure (SMILES) | IC50 [1, 11] [nM] | IC50 [2, 11] [nM] | IC50 [3, 11] [nM] | IC50 [4, 11] [nM] | IC50 [5, 11] [nM] | BAF3-FGFR1 (MIN IL3) pIC50 [6] | IC50 [7, 12] [nM] | BAF3-FGFR3 (MIN IL3) pIC50 [8] | IC50 [9, 12] [nM] | BAF3-FGFR4 pIC50 [10] | IC50 [1] [nM] | IC50 [2] [nM] | IC50 [3] [nM] | IC50 [4] [nM] | IC50 [5] [nM] | IC50 [7] [nM] | IC50 [9] [nM]
COc1cc(O)cc(N(Cc2ncc[nH]2)c2ccc3ncc(-c4cnn(C)c4)nc3n2)c1 [Compound 103] | 0.339 | 0.741 | 0.417 | 0.741 | 5.37 | 8.31 | > 8510 | ~8.00 | > 10000 | ~7.43 | – | – | – | – | – | – | –
COc1cc(OC)c(F)c(N(Cc2nn[nH]n2)c2ccc3ncc(-c4cnn(C)c4)nc3n2)c1 [Compound 140] | – | – | – | – | – | <5 | > 10000 | <5 | > 10000 | <5 | 11.7 | 4.47 | 5.62 | 11.7 | 56.2 | – | –
COCC(O)Cn1c(=Nc2c(F)c(OC)cc(OC)c2F)ccc2ncc(-c3cnn(C)c3)nc21 (centres unmarked) [Compound 51] | 0.589 | 1.29 | 0.501 | 0.525 | 7.76 | 8.48 | > 10000 | ~8.03 | > 10000 | 7.77 | – | – | – | – | – | – | –
COc1cc(OC)c(F)c(N(CCN)c2ccc3ncc(-c4cnn(C)c4)nc3n2)c1F [Compound 67] | 0.813 | 1.78 | 1.2 | 2.75 | 14.5 | 8.20 | > 10000 | 7.83 | > 10000 | 7.37 | – | – | – | – | – | – | –
COc1cc(O)cc(N(Cc2ncc[nH]2)c2ccc3ncc(-c4cnn(C)c4)nc3n2)c1F [Compound 95] | 0.417 | 0.955 | 0.447 | 0.537 | 2.75 | 8.83 | 7410 | ~8.46 | > 10000 | 8.03 | – | – | – | – | – | – | –
COc1cc(OC)cc(N(Cc2nc[nH]n2)c2ccc3ncc(-c4cnn(C)c4)nc3n2)c1 [Compound 71] | 1.07 | 1.55 | 0.776 | 1.62 | 19.1 | 7.49 | – | 7.71 | – | 7.14 | – | – | – | – | – | > 10000 | > 10000
COc1cc(OC)cc(N(CC2CCC(=O)N2)c2ccc3ncc(-c4cnn(C)c4)nc3n2)c1 (centres unmarked) [Compound 49] | 3.24 | 1.95 | 1.62 | 6.31 | 60.3 | 6.78 | > 10000 | ~6.85 | > 10000 | 6.24 | – | – | – | – | – | – | –
COc1cc(OC)c(F)c(N(CCO)c2ccc3ncc(-c4cnn(C)c4)nc3n2)c1F [Compound 20] | 25.1 | 126 | 1.58 | 3.98 | 316 | 8.35 | > 10000 | 8.15 | > 10000 | 7.63 | – | – | – | – | – | – | –
COc1cc(OC)c(Cl)c(/N=c2\ccc3ncc(-c4cnn(C)c4)nc3n2CC2CCC(=O)N2)c1Cl (single isomer, unassigned) [Compound 87] | 4.07 | 6.03 | 4.57 | 38.9 | 117 | 6.84 | > 9120 | ~6.93 | > 10000 | 5.89 | – | – | – | – | – | – | –
COc1cc(/N=c2\ccc3ncc(-c4cnn(C)c4)nc3n2CC2COC(=O)N2)c(F)c(OC)c1 (single isomer, unassigned) [Compound 112] | 1.26 | 1.66 | 0.776 | 2.04 | 17 | 7.23 | > 10000 | ~7.27 | > 10000 | 6.67 | – | – | – | – | – | – | –
COc1cc(/N=c2\ccc3ncc(-c4cnn(C)c4)nc3n2CCNC(C)C)c(F)c(OC)c1 [Compound 37] | 1.62 | 4.47 | 8.71 | 15.5 | 45.7 | 7.78 | > 10000 | ~7.65 | > 10000 | 6.78 | – | – | – | – | – | – | –
COc1ccc(Cl)c(/N=c2\ccc3ncc(-c4cnn(C)c4)nc3n2CC2CCC(=O)N2)c1Cl (single isomer, unassigned) [Compound 89] | 93.3 | 70.8 | 97.7 | ~1120 | 339 | 5.18 | > 10000 | 5.14 | > 10000 | <5 | – | – | – | – | – | – | –
COc1cc(OC)c(F)c(N(CC(O)COC(C)C)c2ccc3ncc(-c4cnn(C)c4)nc3n2)c1F (centres unmarked) [Compound 63] | 3.72 | 6.17 | 6.31 | 6.03 | 15.8 | 7.90 | > 10000 | 7.97 | > 10000 | 7.49 | – | – | – | – | – | – | –
CNCCN(c1ccc2ncc(-c3cnn(C)c3)nc2n1)c1c(F)ccc(OC)c1Cl [Compound 69] | 3.02 | 4.27 | 6.46 | 38.9 | 417 | 7.06 | > 10000 | 6.76 | > 10000 | 6.11 | – | – | – | – | – | – | –
COc1cc(OC)c(F)c(N(Cc2ncc[nH]2)c2ccc3ncc(-c4cnn(Cc5ncc[nH]5)c4)nc3n2)c1 [Compound 100] | 1.29 | 2.14 | 1.29 | 1.29 | 8.13 | 8.02 | > 10000 | 7.56 | > 10000 | 6.99 | – | – | – | – | – | – | –
COc1ccc(Cl)c(N(Cc2ncc[nH]2)c2ccc3ncc(-c4cnn(C)c4)nc3n2)c1Cl [Compound 65] | 38.9 | ~11.2 | 34.7 | ~355 | 191 | 5.97 | > 10000 | 6.04 | > 10000 | 5.21 | – | – | – | – | – | – | –
COc1cc(OC)c(F)c(N(CC2CCCCO2)c2ccc3ncc(-c4cnn(C)c4)nc3n2)c1 (centres unmarked) [Compound 139] | – | – | – | – | – | 7.40 | > 10000 | 7.38 | > 10000 | 6.61 | 3.16 | 3.31 | 2.75 | 4.17 | 28.8 | – | –
